Consider 22 molecules from ChEMBL document CHEMBL4265944, “Novel amide derivatives of 1,3-dimethyl-2,6-dioxopurin-7-yl-alkylcarboxylic acids as multifunctional TRPA1 antagonists and PDE4/7 inhibitors: A new approach for the treatment of pain” (Eur J Med Chem, 2018).

Usually inhibition stands for the drop in the measured response relative to a control, in per cent. For orientation: IC50 means the midpoint of a concentration-inhibition curve. Broadly, the ED50 is the dose at which the effect has come halfway, by size or by number of responders. The term inhibition in vivo denotes the share of the control response that was lost under treatment.

The target of assay [1] is Transient receptor potential cation channel subfamily A member 1 (Homo sapiens) (UniProt O75762). Nature of the assay: Antagonist activity at human TRPA1 expressed in HEK293 cells assessed as decrease in flufenamic acid-evoked increase in intracellular calcium level at 100 uM measured for 180 secs with 1 sec interval by Fluo4-AM dye-based fluorescence assay relative to control. The format is cell-based. (A change in cytosolic calcium serves as a functional read-out for many receptors and channels.)
Chain of Transient receptor potential cation channel subfamily A member 1 (Homo sapiens) (O75762 whole entry): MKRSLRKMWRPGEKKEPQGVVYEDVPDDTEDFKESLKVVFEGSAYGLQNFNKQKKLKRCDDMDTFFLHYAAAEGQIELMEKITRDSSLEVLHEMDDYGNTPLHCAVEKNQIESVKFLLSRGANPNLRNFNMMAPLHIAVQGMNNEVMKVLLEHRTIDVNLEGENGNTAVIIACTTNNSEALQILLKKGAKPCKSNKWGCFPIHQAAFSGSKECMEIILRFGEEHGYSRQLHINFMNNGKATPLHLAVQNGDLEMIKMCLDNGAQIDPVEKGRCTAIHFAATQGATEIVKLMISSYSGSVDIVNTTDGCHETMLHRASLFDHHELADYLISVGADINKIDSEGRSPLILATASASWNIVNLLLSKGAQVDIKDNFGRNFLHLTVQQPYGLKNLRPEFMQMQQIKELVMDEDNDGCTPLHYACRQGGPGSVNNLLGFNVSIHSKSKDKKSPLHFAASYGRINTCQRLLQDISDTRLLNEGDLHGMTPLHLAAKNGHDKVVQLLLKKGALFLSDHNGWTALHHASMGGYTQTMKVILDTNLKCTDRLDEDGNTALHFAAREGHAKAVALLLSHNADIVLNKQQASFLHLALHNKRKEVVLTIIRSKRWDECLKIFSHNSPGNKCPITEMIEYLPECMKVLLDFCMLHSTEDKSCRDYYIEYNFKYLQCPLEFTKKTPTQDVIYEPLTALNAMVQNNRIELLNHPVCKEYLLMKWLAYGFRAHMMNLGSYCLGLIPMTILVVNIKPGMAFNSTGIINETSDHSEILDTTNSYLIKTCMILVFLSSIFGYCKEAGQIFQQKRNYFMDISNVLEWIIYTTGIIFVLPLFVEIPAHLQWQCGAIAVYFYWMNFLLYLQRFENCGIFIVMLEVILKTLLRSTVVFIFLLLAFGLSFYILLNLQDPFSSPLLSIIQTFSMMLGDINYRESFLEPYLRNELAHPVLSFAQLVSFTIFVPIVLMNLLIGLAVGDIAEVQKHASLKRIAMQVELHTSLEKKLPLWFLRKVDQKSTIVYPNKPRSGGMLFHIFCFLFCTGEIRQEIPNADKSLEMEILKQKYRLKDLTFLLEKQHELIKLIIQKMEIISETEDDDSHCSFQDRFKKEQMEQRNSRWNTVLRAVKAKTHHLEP

Assay [2] has the same target. The assay is described as follows: Antagonist activity at human TRPA1 expressed in HEK293 cells assessed as decrease in flufenamic acid-evoked increase in intracellular calcium level at 10 uM measured for 180 secs with 1 sec interval by Fluo4-AM dye-based fluorescence assay relative to control. The format is cell-based.
For assay [3] the target is unchanged. The assay is described as follows: Antagonist activity at human TRPA1 expressed in HEK293 cells assessed as decrease in flufenamic acid-evoked increase in intracellular calcium level at 1 uM measured for 180 secs with 1 sec interval by Fluo4-AM dye-based fluorescence assay relative to control. The format is cell-based.
The target of assay [4] is 3',5'-cyclic-AMP phosphodiesterase 4B (Homo sapiens, UniProt Q07343). Nature of the assay: Inhibition of recombinant human PDE4B using cAMP as substrate after 10 mins by PDE-Glo Phosphodiesterase Assay.
Chain of 3',5'-cyclic-AMP phosphodiesterase 4B (Q07343 whole entry): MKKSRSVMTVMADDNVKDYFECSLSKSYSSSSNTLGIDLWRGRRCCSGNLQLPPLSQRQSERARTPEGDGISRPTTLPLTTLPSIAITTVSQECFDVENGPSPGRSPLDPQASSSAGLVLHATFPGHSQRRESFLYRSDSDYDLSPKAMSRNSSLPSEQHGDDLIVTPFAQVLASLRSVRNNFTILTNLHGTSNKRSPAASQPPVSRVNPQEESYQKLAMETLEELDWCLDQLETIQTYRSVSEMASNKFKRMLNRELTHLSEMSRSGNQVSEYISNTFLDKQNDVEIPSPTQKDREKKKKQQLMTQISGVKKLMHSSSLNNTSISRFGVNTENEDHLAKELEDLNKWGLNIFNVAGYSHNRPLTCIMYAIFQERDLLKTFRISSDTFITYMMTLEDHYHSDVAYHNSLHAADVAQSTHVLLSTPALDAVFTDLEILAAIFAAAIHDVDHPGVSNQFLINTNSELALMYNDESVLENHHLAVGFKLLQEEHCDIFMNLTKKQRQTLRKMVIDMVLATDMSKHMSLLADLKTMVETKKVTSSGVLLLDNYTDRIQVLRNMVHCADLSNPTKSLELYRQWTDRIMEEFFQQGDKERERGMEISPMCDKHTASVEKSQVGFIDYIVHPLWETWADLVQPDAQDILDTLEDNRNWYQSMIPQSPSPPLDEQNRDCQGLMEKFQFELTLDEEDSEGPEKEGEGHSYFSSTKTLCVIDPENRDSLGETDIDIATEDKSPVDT
Assay [5] concerns the target High affinity 3',5'-cyclic-AMP phosphodiesterase 7A (Homo sapiens, UniProt Q13946). Nature of the assay: Inhibition of recombinant human PDE7A using cAMP as substrate after 10 mins by PDE-Glo Phosphodiesterase Assay.
In assay [6] the test system is Rattus norvegicus. Nature of the assay: Antiallodynic activity in Wistar rat assessed as reduction in oxaliplatin-induced neuropathic pain in early phase by measuring paw withdrawal force at 5 to 10 mg/kg, ip measured after 60 mins by Von Frey test. The format is functional, organism-based.
Assay [7] relates to Rattus norvegicus. The assay is described as follows: Antiallodynic activity in Wistar rat assessed as reduction in oxaliplatin-induced neuropathic pain in late phase by measuring paw withdrawal force at 5 to 10 mg/kg, ip measured after 60 mins by Von Frey test. The format is functional, organism-based.
The test system of assay [8] is Mus musculus. The assay is described as follows: Antiinflammatory activity in formalin-induced nociception Swiss CD-1 mouse model assessed as time spent on licking or biting formalin injected right hind paw during neurogenic phase at 10 mg/kg, ip measured during phase 1 (reference value: 97 +/- 6.86 sec). The format is functional.
Assay [9] deals with Mus musculus. The assay is described as follows: Antiinflammatory activity in formalin-induced nociception Swiss CD-1 mouse model assessed as time spent on licking or biting formalin injected right hind paw during neurogenic phase at 5 mg/kg, ip measured during phase 1 (reference value: 97 +/- 6.86 sec). The assay is classed as functional.
For assay [10], the system named is Mus musculus. Nature of the assay: Antiinflammatory activity in formalin-induced nociception Swiss CD-1 mouse model assessed as time spent on licking or biting formalin injected right hind paw during neurogenic phase at 2.5 mg/kg, ip measured during phase 1 (reference value: 97 +/- 6.86 sec). The assay is classed as functional.
Assay [11] relates to Mus musculus. Nature of the assay: Antiinflammatory activity in formalin-induced nociception Swiss CD-1 mouse model assessed as time spent on licking or biting formalin injected right hind paw during neurogenic phase at 10 mg/kg, ip measured during phase 2 (reference value: 158.3 +/- 12.34 sec). The assay is classed as functional.
Assay [12] relates to Mus musculus. The assay is described as follows: Antiinflammatory activity in formalin-induced nociception Swiss CD-1 mouse model assessed as time spent on licking or biting formalin injected right hind paw during neurogenic phase at 5 mg/kg, ip measured during phase 2 (reference value: 158.3 +/- 12.34 sec). The format is functional.
For assay [13], the system named is Mus musculus. Nature of the assay: Antiinflammatory activity in formalin-induced nociception Swiss CD-1 mouse model assessed as time spent on licking or biting formalin injected right hind paw during neurogenic phase at 2.5 mg/kg, ip measured during phase 2 (reference value: 158.3 +/- 12.34 sec). The assay is classed as functional.
Assay [14] concerns Mus musculus. The assay is described as follows: Antiinflammatory activity in formalin-induced nociception ip dosed Swiss CD-1 mouse model assessed as time spent on licking or biting formalin injected right hind paw […] measured during phase 2. The format is functional. As to conditions: Swiss CD-1, ip.
The test system of assay [15] is Rattus norvegicus. Nature of the assay: Anti-inflammatory activity in Wistar rat assessed as inhibition of carrageenan-induced paw edema at 20 mg/kg, ip measured at 1 hr post dose relative to control. The format is functional. (In general: Carrageenan injected into the paw causes an acute inflammation.)
Assay [16] relates to Rattus norvegicus. The assay is described as follows: Anti-inflammatory activity in Wistar rat assessed as inhibition of carrageenan-induced paw edema at 20 mg/kg, ip measured at 2 hrs post dose relative to control. The format is functional.
The subject of assay [17] is Rattus norvegicus. Nature of the assay: Anti-inflammatory activity in Wistar rat assessed as inhibition of carrageenan-induced paw edema at 20 mg/kg, ip measured at 3 hrs post dose relative to control. The format is functional.
Assay [18] relates to Rattus norvegicus. The assay is described as follows: Anti-inflammatory activity in Wistar rat assessed as inhibition of carrageenan-induced paw edema at 40 mg/kg, ip measured at 1 hr post dose relative to control. The format is functional.
Assay [19] concerns Rattus norvegicus. Nature of the assay: Anti-inflammatory activity in Wistar rat assessed as inhibition of carrageenan-induced paw edema at 40 mg/kg, ip measured at 2 hrs post dose relative to control. The assay is classed as functional.
Assay [20] concerns Rattus norvegicus. The assay is described as follows: Anti-inflammatory activity in Wistar rat assessed as inhibition of carrageenan-induced paw edema at 40 mg/kg, ip measured at 3 hrs post dose relative to control. The assay is classed as functional.
The test system of assay [21] is Rattus norvegicus. The assay is described as follows: Anti-inflammatory activity in Wistar rat assessed as inhibition of carrageenan-induced paw edema at 100 mg/kg, ip measured at 1 hr post dose relative to control. The format is functional.
Assay [22] deals with Rattus norvegicus. Nature of the assay: Anti-inflammatory activity in Wistar rat assessed as inhibition of carrageenan-induced paw edema at 100 mg/kg, ip measured at 2 hrs post dose relative to control. The assay is classed as functional.
The test system of assay [23] is Rattus norvegicus. The assay is described as follows: Anti-inflammatory activity in Wistar rat assessed as inhibition of carrageenan-induced paw edema at 100 mg/kg, ip measured at 3 hrs post dose relative to control. The format is functional.

Molecules are shown by their SMILES. The source made the active and inactive calls. The rule behind the calls is not given here.

Chain of High affinity 3',5'-cyclic-AMP phosphodiesterase 7A (Q13946 whole entry): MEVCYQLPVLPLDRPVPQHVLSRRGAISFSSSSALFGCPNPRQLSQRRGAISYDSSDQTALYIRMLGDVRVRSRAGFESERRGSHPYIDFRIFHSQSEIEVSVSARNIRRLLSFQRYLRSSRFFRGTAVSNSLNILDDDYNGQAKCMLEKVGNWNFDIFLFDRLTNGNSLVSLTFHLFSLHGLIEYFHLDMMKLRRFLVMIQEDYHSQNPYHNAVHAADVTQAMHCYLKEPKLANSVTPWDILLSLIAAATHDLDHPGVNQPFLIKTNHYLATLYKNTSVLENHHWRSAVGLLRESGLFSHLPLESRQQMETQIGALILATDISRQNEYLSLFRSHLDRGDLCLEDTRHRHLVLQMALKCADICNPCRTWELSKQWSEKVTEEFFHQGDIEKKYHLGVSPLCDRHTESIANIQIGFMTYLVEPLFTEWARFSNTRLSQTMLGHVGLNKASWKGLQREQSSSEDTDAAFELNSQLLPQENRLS

In the case of `COc1nc2c(c(=O)n(C)c(=O)n2C)n1CC(=O)Nc1ccc(C(C)C)cc1`, the figures for the inhibition in assay [1], in assay [2] and in assay [3] were 39%, 13% and 4%, respectively. Moreover, the IC50 in assay [4] and in assay [5] was over 200 µM throughout.
For the molecule `CCOc1nc2c(c(=O)n(C)c(=O)n2C)n1CC(=O)Nc1ccc(Cl)cc1`, in assay [1], the inhibition was 7%. For the same molecule, the 50% inhibitory concentration (IC50) in assay [4] and in assay [5] was over 200 µM in each case.
On to `COc1nc2c(c(=O)n(C)c(=O)n2C)n1CC(=O)NCc1ccccc1Cl`, for which, in [1], the inhibition was determined as 3%. Also, the IC50 in [4] and in assay [5] was over 200 µM in each case.
As to `CCCOc1nc2c(c(=O)n(C)c(=O)n2C)n1CCCC(=O)Nc1cc(C(C)(C)C)ccc1O`, the inhibition in assay [1] stood at 38%; in [2] it was 1%; in [3] it was 3%. Moreover, the IC50 was 14.7 µM in [4] and 41.1 µM in assay [5].
Turning to `CCCOc1nc2c(c(=O)n(C)c(=O)n2C)n1CCCC(=O)Nc1ccc(C(C)C)cc1`, the inhibition in assay [1] is 11%. Moreover, the figures for the IC50 in assay [4] and in assay [5] were 17.8 µM and 37.6 µM, respectively.
Turning to `CC(C)C[C@H](CN)CC(=O)O`, the outcome in assay [6] and in [7] was Active.
For the molecule `CCCOc1nc2c(c(=O)n(C)c(=O)n2C)n1CCCC(=O)Nc1ccc(C(C)CC)cc1` (centres undefined), the inhibition in assay [1] is 5%. Also, the values for the IC50 in assay [4] and in [5] were 16.8 µM and 9.06 µM, respectively.
Taken in the same sequence, the figures for `COc1nc2c(c(=O)n(C)c(=O)n2C)n1CCCC(=O)Nc1cccc(Cl)c1` were 9%, over 200 µM and over 200 µM.
On the same counts, the results for `CCOc1nc2c(c(=O)n(C)c(=O)n2C)n1CC(=O)Nc1ccc(C(C)C)cc1` are 20%, over 200 µM and over 200 µM.
On the same counts, the results for `CCOc1nc2c(c(=O)n(C)c(=O)n2C)n1CC(=O)NCc1ccccc1Cl` are 7%, over 200 µM and over 200 µM.
Regarding `COc1nc2c(c(=O)n(C)c(=O)n2C)n1CCCC(=O)Nc1ccc(C(C)(C)C)cc1`, the inhibition in assay [1] was found to be 13%. The IC50 is 87.5 µM in [4] and 19.8 µM in assay [5].
Taken in the same sequence, the figures for `COc1nc2c(c(=O)n(C)c(=O)n2C)n1CCCC(=O)NCc1ccccc1Cl` were 16%, over 200 µM and over 200 µM.
On the same counts, the results for `CCOc1nc2c(c(=O)n(C)c(=O)n2C)n1CC(=O)Nc1cccc(Cl)c1` are 5%, over 200 µM and over 200 µM.
Taken in the same sequence, the figures for `COc1nc2c(c(=O)n(C)c(=O)n2C)n1CCCC(=O)Nc1ccc(C(C)C)cc1` were 18%, over 200 µM and over 200 µM.
For the molecule `CCOc1nc2c(c(=O)n(C)c(=O)n2C)n1CCCC(=O)Nc1ccc(C(C)(C)C)cc1`, the inhibition in [1] was determined as 0%. For the same molecule, the IC50 was found to be 42.5 µM in [4] and 54.3 µM in assay [5].
Take `CCCOc1nc2c(c(=O)n(C)c(=O)n2C)n1CCCC(=O)Nc1ccc(C(C)(C)C)cc1`: the inhibition was 52% in [1], 5% in assay [2] and 5% in assay [3]. In addition, the IC50 in assay [4] is 21.1 µM; in [5], 7.76 µM.
Consider `CC(C)c1ccc(NC(=O)Cn2cnc3c2c(=O)n(C)c(=O)n3C)cc1`, for which the inhibition in assay [1] is 43%; in assay [2] it was 13%; in assay [3], 0%. In addition, the IC50 in assay [4] and in assay [5] was over 200 µM each time. The Time in [8] worked out at 71 s; in [9], 73.83 s; in [10] it was 82.83 s; in [11], 13.9 s; in assay [12] it was 76.45 s; in [13], 111.33 s. Also, in [14], the ED50 is 33.8 mg/kg. Moreover, the inhibition in vivo at 20 mg/kg was found to be 4.7% in assay [15], 0.02% in assay [16] and 10% in assay [17]. The inhibition in vivo at 40 mg/kg is 12.1% in [18], 23.5% in assay [19] and 25.6% in [20]. Moreover, the inhibition in vivo at 100 mg/kg in assay [21] amounted to 24.1%; in [22] it was 48.2%; in [23], 48.3%.
Regarding `CCCCOc1nc2c(c(=O)n(C)c(=O)n2C)n1CCCC(=O)Nc1ccc(C(C)CC)cc1` (centres undefined), the inhibition in [1] was found to be 14%. Besides, the IC50 in [4] is 110 µM; in assay [5] it was 20 µM.
On the same counts, the results for `CCOc1nc2c(c(=O)n(C)c(=O)n2C)n1CCCC(=O)Nc1ccc(C(C)C)cc1` are 10%, 32.3 µM and 96.3 µM.
On the same counts, the results for `COc1nc2c(c(=O)n(C)c(=O)n2C)n1CC(=O)Nc1cccc(Cl)c1` are 2%, over 200 µM and over 200 µM.
In the case of `COc1nc2c(c(=O)n(C)c(=O)n2C)n1CCCC(=O)Nc1ccc(Cl)cc1`, the inhibition in [1] was found to be 15%. Besides, the 50% inhibitory concentration (IC50) in assay [4] and in assay [5] was over 200 µM each time.
As for `CC(C(=O)O)c1cccc(C(=O)c2ccccc2)c1` (centres undefined) [KETOPROFEN], the inhibition in vivo at 20 mg/kg amounted to 23.3% in assay [15], 54.2% in assay [16] and 66% in assay [17].
